Measurements from US10487093B2, “Heterocyclic compounds, in particular 2-oxo-4,4,5,5,6,6,7,7-octahydrobenzoxazole derivatives, and their use as antibacterial compounds” (priority 2016, dated 2019).
Converted amounts (≈) assume the structure as drawn. Read-outs that look alike come from different tables or passages of the source.

Columns and labels:
[1] = system: Streptococcus pneumoniae ATCC 49619; assay: MIC, broth microdilution (CLSI) versus planktonic bacteria; assay type: cell-based
[2] = system: Haemophilus influenzae ATCC 49247; assay: as above; assay type: cell-based
[3] = system: Escherichia coli ATCC 25922; assay: as above; assay type: cell-based
[4] = system: Enterobacter cloacae NCTC 13406; assay: as above; assay type: cell-based
[5] = system: Pseudomonas aeruginosa ATCC 27853; assay: as above; assay type: cell-based
[6] = system: Staphylococcus aureus ATCC 29213; assay: as above; assay type: cell-based
[7] = system: human hepatic cell line (HepG2 ATCC HB-8065); assay: Human cell viability assay (CellTiter-Glo); settings: Homo sapiens, HepG2, 24 h, read-out: IC50 (μg/mL) HepG2
[8] = system: Acinetobacter baumannii NCTC 13420; assay: MIC, broth microdilution (CLSI) versus planktonic bacteria; assay type: cell-based
[9] = ATCC49619, Streptococcus pneumoniae ATCC 49619, 16-20 h, mode of three independent experiments, read-out: MIC, Sp ATCC 49619
[10] = ATCC49247, Haemophilus influenzae ATCC 49247, 16-20 h, mode of three independent experiments, read-out: MIC, Hi ATCC 49247
[11] = ATCC25922, Escherichia coli ATCC 25922, 16-20 h, mode of three independent experiments, read-out: MIC, Ec ATCC 25922
[12] = NCTC13406, Enterobacter cloacae NCTC 13406, 16-20 h, mode of three independent experiments, read-out: MIC, Ecl NCTC 13406
[13] = ATCC27853, Pseudomonas aeruginosa ATCC 27853, 16-20 h, mode of three independent experiments, read-out: MIC, Pa ATCC 27853
[14] = ATCC29213, Staphylococcus aureus ATCC 29213, 16-20 h, mode of three independent experiments, read-out: MIC, Sa ATCC 29213
[15] = NCTC13420, Acinetobacter baumannii NCTC 13420, 16-20 h, mode of three independent experiments, read-out: MIC, Ab NCTC 13420

| Compound | MIC [1, 9] | MIC [2, 10] | MIC [3, 11] | MIC [4, 12] | MIC [5, 13] | MIC [6, 14] | IC50 [7] | MIC [8, 15] | MIC ([1]; Streptococcus pneumoniae, ATCC49619, read-out: MIC, Sp ATCC 49619) | MIC ([2]; Haemophilus influenzae, ATCC49247, read-out: MIC, Hi ATCC 49247) | MIC ([3]; Escherichia coli, ATCC25922, read-out: MIC, Ec ATCC 25922) | MIC ([4]; Enterobacter cloacae, NCTC13406, read-out: MIC, Ecl NCTC 13406) | MIC ([5]; Pseudomonas aeruginosa, ATCC27853, read-out: MIC, Pa ATCC 27853) | MIC ([6]; Staphylococcus aureus, ATCC29213, read-out: MIC, Sa ATCC 29213) | MIC ([8]; Acinetobacter baumannii, NCTC13420, read-out: MIC, Ab NCTC 13420) |
| --- | --- | --- | --- | --- | --- | --- | --- | --- | --- | --- | --- | --- | --- | --- | --- |
| O=C1COc2ccc(N3C(=O)O[C@@H]4C[C@@H](NCCn5c(=O)ccc6ncc(F)cc65)CC[C@@H]43)nc2N1 [Compound 28, 1-(2-{[(3aS,6S,7aR)-2-oxo-3-{3-oxo-2H,3H,4H-pyrido[3,2-b][1,4]oxazin-6-yl}-octahydro-1,3-benzoxazol-6-yl]amino}ethyl)-7-fluoro-1,2-dihydro-1,5-naphthyridin-2-one] | < 1 µg/mL | 1 to 10 µg/mL (≈ 2.02 to 20.2 µM) | < 1 µg/mL | 1 to 10 µg/mL (≈ 2.02 to 20.2 µM) | 1 to 10 µg/mL (≈ 2.02 to 20.2 µM) | < 1 µg/mL | > 100 µg/mL | 1 to 10 µg/mL (≈ 2.02 to 20.2 µM) | – | – | – | – | – | – | – |
| CN(C)CCOc1ccc2ccc(=O)n(CCN[C@@H]3CC[C@@H]4[C@@H](C3)OC(=O)N4c3ccc4c(n3)NC(=O)CO4)c2c1 [Compound 32, 1-(2-{[(3aR,6R,7aR)-2-oxo-3-{3-oxo-2H,3H,4H-pyrido[3,2-b][1,4]oxazin-6-yl}-octahydro-1,3-benzoxazol-6-yl]amino}ethyl)-7-[2-(dimethylamino)ethoxy]-1,2-dihydroquinolin-2-one] | 1 to 10 µg/mL (≈ 1.78 to 17.8 µM) | 10 to 100 µg/mL (≈ 17.8 to 178 µM) | 1 to 10 µg/mL (≈ 1.78 to 17.8 µM) | 10 to 100 µg/mL (≈ 17.8 to 178 µM) | 1 to 10 µg/mL (≈ 1.78 to 17.8 µM) | 1 to 10 µg/mL (≈ 1.78 to 17.8 µM) | > 100 µg/mL | > 100 µg/mL | – | – | – | – | – | – | – |
| COc1ccc2ccc(=O)n(CCN[C@H]3CC[C@H]4[C@H](C3)OC(=O)N4c3ccc4c(n3)NC(=O)C(C)(C)O4)c2n1 [Compound 48, 1-(2-{[(3aS,6S,7aS)-3-{2,2-dimethyl-3-oxo-2H,3H,4H-pyrido[3,2-b][1,4]oxazin-6-yl}-2-oxo-octahydro-1,3-benzoxazol-6-yl]amino}ethyl)-7-methoxy-1,2-dihydro-1,8-naphthyridin-2-one] | < 1 µg/mL | 1 to 10 µg/mL (≈ 1.87 to 18.7 µM) | 1 to 10 µg/mL (≈ 1.87 to 18.7 µM) | 10 to 100 µg/mL (≈ 18.7 to 187 µM) | 10 to 100 µg/mL (≈ 18.7 to 187 µM) | < 1 µg/mL | > 100 µg/mL | < 1 µg/mL | – | – | – | – | – | – | – |
| COc1ccc2ccc(=O)n(CCN[C@@H]3CC[C@@H]4[C@@H](C3)OC(=O)N4c3cc4c(nn3)OCCO4)c2n1 [Compound 49, 1-(2-{[(3aR,6R,7aR)-3-{6H,7H-[1,4]dioxino[2,3-c]pyridazin-3-yl}-2-oxo-octahydro-1,3-benzoxazol-6-yl]amino}ethyl)-7-methoxy-1,2-dihydro-1,8-naphthyridin-2-one] | < 1 µg/mL | 10 to 100 µg/mL (≈ 20.2 to 202 µM) | 10 to 100 µg/mL (≈ 20.2 to 202 µM) | > 100 µg/mL | 10 to 100 µg/mL (≈ 20.2 to 202 µM) | < 1 µg/mL | > 100 µg/mL | 10 to 100 µg/mL (≈ 20.2 to 202 µM) | – | – | – | – | – | – | – |
| N#Cc1cnc2ccc(=O)n(CCN[C@@H]3CC[C@@H]4[C@@H](C3)OC(=O)N4c3ccc4c(n3)NC(=O)CO4)c2c1 [Compound 50, 5-(2-{[(3aR,6R,7aR)-2-oxo-3-{3-oxo-2H,3H,4H-pyrido[3,2-b][1,4]oxazin-6-yl}-octahydro-1,3-benzoxazol-6-yl]amino}ethyl)-6-oxo-5,6-dihydro-1,5-naphthyridine-3-carbonitrile] | < 1 µg/mL | < 1 µg/mL | < 1 µg/mL | 1 to 10 µg/mL (≈ 1.99 to 19.9 µM) | < 1 µg/mL | < 1 µg/mL | > 100 µg/mL | 1 to 10 µg/mL (≈ 1.99 to 19.9 µM) | – | – | – | – | – | – | – |
| COc1cnc2ccc(=O)n(CCN(C)[C@H]3CC[C@H]4[C@@H](C3)OC(=O)N4c3ccc4c(n3)NC(=O)CO4)c2c1 [Compound 51, 1-(2-{[(3aS,6S,7aR)-2-oxo-3-{3-oxo-2H,3H,4H-pyrido[3,2-b][1,4]oxazin-6-yl}-octahydro-1,3-benzoxazol-6-yl](methyl)amino}ethyl)-7-methoxy-1,2-dihydro-1,5-naphthyridin-2-one] | < 1 µg/mL | < 1 µg/mL | 1 to 10 µg/mL (≈ 1.92 to 19.2 µM) | 1 to 10 µg/mL (≈ 1.92 to 19.2 µM) | 1 to 10 µg/mL (≈ 1.92 to 19.2 µM) | < 1 µg/mL | > 100 µg/mL | 1 to 10 µg/mL (≈ 1.92 to 19.2 µM) | – | – | – | – | – | – | – |
| CSc1ncc2ccc(=O)n(CCN[C@H]3CC[C@H]4[C@@H](C3)OC(=O)N4c3ccc4c(n3)NC(=O)CO4)c2n1 [Compound 53, (3aS,6S,7aR)-6-({2-[2-(methylsulfanyl)-7-oxo-7H,8H-pyrido[2,3-d]pyrimidin-8-yl]ethyl}amino)-3-{3-oxo-2H,3H,4H-pyrido[3,2-b][1,4]oxazin-6-yl}-octahydro-1,3-benzoxazol-2-one] | 1 to 10 µg/mL (≈ 1.91 to 19.1 µM) | 1 to 10 µg/mL (≈ 1.91 to 19.1 µM) | 1 to 10 µg/mL (≈ 1.91 to 19.1 µM) | 10 to 100 µg/mL (≈ 19.1 to 191 µM) | 10 to 100 µg/mL (≈ 19.1 to 191 µM) | < 1 µg/mL | > 100 µg/mL | 1 to 10 µg/mL (≈ 1.91 to 19.1 µM) | – | – | – | – | – | – | – |
| CN(CCn1c(=O)ccc2ccc(OCCN)cc21)[C@@H]1CC[C@@H]2[C@@H](C1)OC(=O)N2c1ccc2c(n1)NC(=O)CO2 [Compound 54] | < 1 µg/mL | 1 to 10 µg/mL (≈ 1.82 to 18.2 µM) | < 1 µg/mL | 1 to 10 µg/mL (≈ 1.82 to 18.2 µM) | 1 to 10 µg/mL (≈ 1.82 to 18.2 µM) | < 1 µg/mL | > 100 µg/mL | 1 to 10 µg/mL (≈ 1.82 to 18.2 µM) | – | – | – | – | – | – | – |
| O=C1COc2cnc(N3C(=O)O[C@@H]4C[C@@H](NCCn5c(=O)cnc6cc(F)c(F)cc65)CC[C@@H]43)nc2N1 [Compound 65, 1-(2-{[(3aS,6S,7aR)-2-oxo-3-{7-oxo-6H,7H,8H-pyrimido[5,4-b][1,4]oxazin-2-yl}-octahydro-1,3-benzoxazol-6-yl]amino}ethyl)-6,7-difluoro-1,2-dihydroquinoxalin-2-one] | < 1 µg/mL | 1 to 10 µg/mL (≈ 1.95 to 19.5 µM) | 1 to 10 µg/mL (≈ 1.95 to 19.5 µM) | 1 to 10 µg/mL (≈ 1.95 to 19.5 µM) | 10 to 100 µg/mL (≈ 19.5 to 195 µM) | < 1 µg/mL | > 100 µg/mL | 10 to 100 µg/mL (≈ 19.5 to 195 µM) | – | – | – | – | – | – | – |
| O=C1COc2cnc(N3C(=O)O[C@H]4C[C@@H](NCCn5c(=O)cnc6cc(F)c(F)cc65)CC[C@@H]43)nc2N1 [Compound 66, 1-(2-{[(3aS,6S,7aS)-2-oxo-3-{7-oxo-6H,7H,8H-pyrimido[5,4-b][1,4]oxazin-2-yl}-octahydro-1,3-benzoxazol-6-yl]amino}ethyl)-6,7-difluoro-1,2-dihydroquinoxalin-2-one] | < 1 µg/mL | 1 to 10 µg/mL (≈ 1.95 to 19.5 µM) | 1 to 10 µg/mL (≈ 1.95 to 19.5 µM) | 10 to 100 µg/mL (≈ 19.5 to 195 µM) | > 100 µg/mL | < 1 µg/mL | > 100 µg/mL | 1 to 10 µg/mL (≈ 1.95 to 19.5 µM) | – | – | – | – | – | – | – |
| N#Cc1ccc(-c2cccc(CN[C@H]3CC[C@H]4[C@H](C3)OC(=O)N4c3ccc4c(n3)NC(=O)CO4)c2)nc1 [Compound 71, 6-[3-({[(3aS,6S,7aS)-2-oxo-3-{3-oxo-2H,3H,4H-pyrido[3,2-b][1,4]oxazin-6-yl}-octahydro-1,3-benzoxazol-6-yl]amino}methyl)phenyl]pyridine-3-carbonitrile] | 1 to 10 µg/mL (≈ 2.01 to 20.1 µM) | 1 to 10 µg/mL (≈ 2.01 to 20.1 µM) | < 1 µg/mL | 1 to 10 µg/mL (≈ 2.01 to 20.1 µM) | 10 to 100 µg/mL (≈ 20.1 to 201 µM) | < 1 µg/mL | 10 to 100 µg/mL (≈ 20.1 to 201 µM) | 1 to 10 µg/mL (≈ 2.01 to 20.1 µM) | – | – | – | – | – | – | – |
| NCCOc1ccc2ccc(=O)n(CCN[C@H]3CC[C@H]4[C@H](C3)OC(=O)N4c3ccc4c(n3)NC(=O)CO4)c2c1 [Compound 75, (3aS,6S,7aS)—N-{2-[7-(2-azaniumylethoxy)-2-oxo-1,2-dihydroquinolin-1-yl]ethyl}-2-oxo-3-{3-oxo-2H,3H,4H-pyrido[3,2-b][1,4]oxazin-6-yl}-octahydro-1,3-benzoxazol-6-aminium dichloride] | – | – | – | – | – | – | > 100 µg/mL | – | < 1 µg/mL | 10 to 100 µg/mL | < 1 µg/mL | 1 to 10 µg/mL | 1 to 10 µg/mL | 1 to 10 µg/mL | > 100 µg/mL |
